Reference: patent US12246010B2, “Formulations of tegavivint and related compounds” (Iterion Therapeutics, Inc., priority 2018, dated 2025)
Values joined by “and” are separate entries in the source; they are usually repeats but may differ in a detail not shown here. Equal entries are not always repeated. Where two headings read alike, the source gives them in different places.

Tests used:
[1] = Lung concentration after nebulized whole body exposure of mice; assay type: in vivo, bcat-Ex3 mice; conditions: for concentration at 5 day: male, bcat-Ex3, mouse, lung, inhaled
Protocol: The purpose of this experiment was to test nebulized delivery of nanosuspensions.
Tegavivint particles suspended in Poloxamer 188/sorbitol at a concentration of 25 mg/mL were used.
These formulations were applied to the mice in the form of aerosols, through the method of whole body exposure. The mice were placed inside a plastic box. This box was sealed and connected by one of its sides to the outlet of the nebulizer device, and on the other side to a system of closed water. The whole procedure was carried out inside the fume hood of the animal room.
For the first experiment, the nebulizer kit of SATER LABS was used. This device uses the jet system. The device was primed with 5 ml of the drug, i.e. 125 mg of tegavivint (BC2059), for each group of 5 mice, and then the device was connected to the power source for nebulization. The energy was supplied by a DeVilbiss compressor model 646, which allows 5-7 pounds of pressure, and a flow of 6-8 liters per minute. For the second experiment, the device used was the Altera, ultrasonic nebulizer.
For the two experiments, 10 male bcat-Ex3 mice were used for each set. These mice were separated into 2 groups of 5 mice each. The first group received the drug daily, for 5 consecutive days. The second group received the drug only once (the fifth day). On day 5 all mice were sacrificed, lung harvested, and samples were stored at −30 degrees, in two labeled nylon bags, each containing the 5 samples from each group.

[2] = system: red blood cells; assay: Hemolysis of red blood cells; assay type: cell-based; conditions: in the nanoparticle form or when dissolved in DMSO
Text: It was hypothesized that the tween/ethanol/PEG/Vitamin E/Intralipid solvent-based excipients and probable drug precipitation were responsible for the infusion reactions and not tegavivint itself.

[3] = Aerosol particle size distribution by cascade impactor; assay type: physicochemical; conditions: Covaris and Ball Mill (60 min); 0.1% Tween 80; 15.06 mg/mL; Hospitak
Protocol: Particle size distribution (PSD) of the test article was measured at the breathing zone using an In Tox, mercer style cascade impactor.
Particle size for test atmospheres was measured using an In-Tox Cascade impactor for suspensions prepared with 0.1% Tween 80 in ultrapure water, and the sponsor provided poloxamer suspension using a compressed air nebulizer.

[4] = mouse lung, Nebulizer (ultrasonic eRapid, Altera), 5 daily doses on Days 1-5

concentration at 5 day ([1]; Nebulizer (ultrasonic eRapid, Altera), 5 daily doses on Days 1-5, read-out: Lung Concentration (ng/g)): 19100 ng/g
concentration at 5 day ([1]; Nebulizer (ultrasonic eRapid, Altera), 5 daily doses on Days 1-5, read-out: Lung Concentration (ng/mL)): 4770 ng/mL
lung tissue concentration in the previous testing (assayed concentration) ([1]; mouse lung, previous nebulization testing): ~0.02 mg/g
GSD [3]: 2.21
MMAD [3]: 1.26 µm
Compound: C[C@@H]1C[C@H](C)CN(S(=O)(=O)c2ccc3c(c2)C(=NO)c2cc(S(=O)(=O)N4C[C@H](C)C[C@H](C)C4)ccc2C3=NO)C1 [BC2059, tegavivint]
Lung Concentration (ng/g) [1, 4]: 17200 ng/g and 18800 ng/g and 12200 ng/g and 22900 ng/g
Lung Concentration (ng/mL) [1, 4]: 4290 ng/mL and 4690 ng/mL and 3040 ng/mL and 5730 ng/mL
hemolysis of red blood cells [2]: does not cause hemolysis
